We go through 12 compounds from patent publication US9889183B2, “PKC activators and anticoagulant in regimen for treating stroke” (BLANCHETTE ROCKEFELLER NEUROSCIENCES INSTITUTE, priority 2010, dated 2018).

The target of one assay is T1, PKCε (Homo sapiens, UniProt Q02156).
T1 construct: purchased Calbiochem
T1 sequence (Q02156 1-737): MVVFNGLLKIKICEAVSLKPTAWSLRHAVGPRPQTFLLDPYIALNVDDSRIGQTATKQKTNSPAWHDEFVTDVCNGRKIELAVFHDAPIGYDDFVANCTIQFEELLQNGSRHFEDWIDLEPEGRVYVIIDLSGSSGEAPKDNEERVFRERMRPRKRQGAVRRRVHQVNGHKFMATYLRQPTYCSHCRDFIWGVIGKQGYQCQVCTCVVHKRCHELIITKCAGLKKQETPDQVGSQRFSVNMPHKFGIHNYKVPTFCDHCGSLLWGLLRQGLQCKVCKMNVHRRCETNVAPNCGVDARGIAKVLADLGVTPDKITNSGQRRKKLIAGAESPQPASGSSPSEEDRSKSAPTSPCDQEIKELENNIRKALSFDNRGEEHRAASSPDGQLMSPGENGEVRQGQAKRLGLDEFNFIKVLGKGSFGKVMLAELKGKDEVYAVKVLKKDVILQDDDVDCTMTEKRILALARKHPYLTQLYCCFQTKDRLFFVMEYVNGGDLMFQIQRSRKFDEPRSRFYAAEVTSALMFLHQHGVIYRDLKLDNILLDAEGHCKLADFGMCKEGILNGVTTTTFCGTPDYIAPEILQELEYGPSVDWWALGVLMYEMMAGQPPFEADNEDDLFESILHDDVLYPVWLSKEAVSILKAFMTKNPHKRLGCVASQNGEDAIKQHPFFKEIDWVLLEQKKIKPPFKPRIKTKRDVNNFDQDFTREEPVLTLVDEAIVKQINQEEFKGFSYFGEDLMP
As to the kind of experiment: PKC assay with purified PKCε. As to conditions: for activation of purified PKCε (in words): FIG. 7, methyl esters. In kind it is biochemical. As to the method:
PKC assay. Recombinant PKC (1 ng of PKCα or PKCε isoform) was mixed with BR-101 (DCP-LA) in the presence of 10 micromolar histones, 5 mM CaCl2, 1.2 μg/μl phosphatidyl-L-serine, 0.18 μg/μl 1,2-dioctanoyl-sn-glycerol (DAG), 10 mM MgCl2, 20 mM HEPES (pH 7.4), 0.8 mM EDTA, 4 mM EGTA, 4% glycerol, 8 μg/ml aprotinin, 8 μg/ml leupeptin, and 2 mM benzamidine. 0.5 micro Ci[^γ32P]ATP was added. The incubation mixture was incubated for 15 min at 37 degrees in a total volume of 10 microliters. The reaction was stopped by spotting the reaction mixtures on 1×2 cm strips of cellulose phosphate paper (Whatman P81) and immediately washing twice for 1 hr in 0.5% H3PO4. The cellulose phosphate strips were counted in a scintillation counter. In some experiments, phosphatidylserine, diacylglycerol, and/or calcium were removed.
DHA methyl ester was purchased from Cayman Chemical (Ann Arbor, Me.). PKC isozymes were from Calbiochem (San Diego, Calif.). Purified PKCε was purchased from Calbiochem.
(§1) Protein kinase C assay. Rat hippocampal cells were cultured and scraped in 0.2 ml homogenization buffer (20 mM Tris-HCl, pH 7.4, 50 mM NaF, 1 μg/ml leupeptin, and 0.1 mM PMSF) and homogenized by sonication a Marsonix microprobe sonicator (5 sec, 10 W). To measure PKC, 10 μl of cell homogenate or purified PKC isozyme (purchased from Calbiochem) was incubated for 15 min at 37° C. in the presence of 10 μM histones, 4.89 mM CaCl2, 1.2 μg/μl phosphatidyl-L-serine, 0.18 μg/μl 1,2-dioctanoyl-sn-glycerol, 10 mM MgCl2, 20 mM HEPES (pH 7.4), 0.8 mM EDTA, 4 mM EGTA, 4% glycerol, 8 μg/ml aprotinin, 8 μg/ml leupeptin, and 2 mM benzamidine. […][^γ32P]ATP was added and ^32P-phosphoprotein formation was measured by adsorption onto phosphocellulose as described previously. Nelson and Alkon, J. Neurochemistry (1995), vol. 65, pp. 2350-2357. For measurements of activation by BR-101 (DCP-LA) and similar compounds. PKC activity was measured in the absence of diacylglycerol and phosphatidylserine and PKC δ, ε, η, and μ were measured in the absence of added EGTA and CaCl2, as described by Kanno et al. (J. Lipid Res. 2006, vol. 47, pp. 1146-1150). Low concentrations of Ca^2+ are used because high Ca^2+ interacts with the PKC phosphatidylserine binding site and prevents activation. For measurements of bryostatin activation, 1,2-diacylglycerol was omitted unless otherwise stated.
To determine their PKC isozyme specificity, fatty acid derivatives were preincubated with purified PKC for five minutes and the PKC activity was measured radiometrically.

For a further assay, the system named is PKC. As to conditions: cited from earlier work.
Assay [1] deals with squamous cell carcinoma and melanoma. As to conditions: used topically; cited from earlier work.
Assay [2] has as its system global cerebral ischemia/hypoxia in rats. Kind of assay: Global ischemia model, water maze (Examples 10-11). Type of assay: in vivo, rat.
Description: Rats (male, Wistar, 200-225 g) were randomly divided into 6 groups (8 each) and housed for 1 week before experimentation. […] The global ischemia model used to induce vascular memory impairment was two-vessel occlusion combined with a short term systemic hypoxia. Ligation of the bilateral common carotid arteries was performed under anesthesia (pentobarbital, 60 mg/kg, i.p.). After a one-week recovery from the surgery, rats were exposed to 14-min hypoxia (5% oxygen in a glass jar). Control rats (sham operated and vehicle controls) were subjected to the same incision to isolate both common carotid arteries and to 14-min air (in the glass jar). Body temperature was kept at 37-37.5° C. using a heating light source during the surgical procedure and until the animals were fully recovered.
Assay [3] concerns PKC in H19-7/IGF-IR cells. As to the kind of experiment: PKC activity over time in rat H19-7/IGF-IR hippocampal cells. In kind it is cell-based. As to conditions: treated cells, 8 hours; data not shown. Here is the method: Cell culture. Rat hippocampal H19-7/IGF-IR cells (ATCC, Manassas, Va.) were plated onto poly-L-lysine coated plates and grown at 35° C. in DMEM/10% FCS for several days until about 50% coverage was obtained. The cells were then induced to differentiate into a neuronal phenotype by replacing the medium with 5 ml N2 medium containing 10 ng/ml basic fibroblast growth factor at 39° C. and grown in T-75 flasks at 37° C. Human SH-SY5Y neuroblastoma cells (ATCC) were cultured in 45% F12K/45% MEM/10% FCS. Mouse N2A neuroblastoma cells were cultured in DMEM/10% FCS without glutamine. Rat hippocampal neurons from 18-day-old embryonic Sprague Dawley rat brains were plated on 12- or 96-well plates coated with poly-D-lysine (Sigma-Aldrich, St. Louis, Mo.) in B-27 neurobasal medium containing 0.5 mM glutamine and 25 μM glutamate (Invitrogen, Carlsbad, Calif.) and cultured for three days in the medium without glutamate. The neuronal cells were grown under 5% CO2 in an incubator maintained at 37° C. for 14 days.
as §1
PKC activators that bind to the diacylglycerol binding site, including bryostatin, gnidimacrin, and phorbol esters, produce a transient activation of PKC activity, followed by a prolonged downregulation. Nelson et al., Trends in Biochem. Sci. (2009), vol. 34, pp. 136-145. This was confirmed in cultured rat hippocampal cells. Incubation of rat H19-7/IGF-IR cells with (0.04 nM and 0.2 nM) bryostatin produced a 2-fold activation that lasted 30 min, followed by a 20% downregulation that returned to baseline by 24 hours (data not shown). […] This sustained activation was only observed in primary neurons.

The subject of a further assay is Aβ in COS cells. As to conditions: 1 μM, cultured COS cells, 8 hours; cited from earlier work.
Setting [4] is: non-ischemic rats, same regimens.

As to `CCCCCC1OC1C/C=C\CCCCCCCC(=O)OC` (stereo in doubt) [BR-117, vernolic acid methyl ester], the “effect on PKC” value on PKCε (FIG. 8) is “little or no effect”.
For `CCCCCCCC(=O)O[C@H]1/C(=C/C(=O)OC)C[C@H]2C[C@H](CO)OC(=O)C[C@H](O)C[C@@H]3CCC[C@H](C[C@@H]4CCO[C@H](/C=C/C(C)(C)[C@]1(O)O2)O4)O3` [Analog 1], the “affinity for PKC (in words)” value in the assay with PKC is given as “highest affinity”.
Turning to `CCC1CC1CC1CC1CC1CC1CCCCCCCCO` (stereo not shown) [BR-104, linolenic alcohol tricyclopropane], on PKCε (FIG. 8), the “effect on PKC” value was “little or no effect”.
Same read-out and setting: with `CCCCCC1CC1CC1CC1CCCCCCCCO` (stereo not shown) [BR-105, linoleic alcohol dicyclopropane] the entry was “little or no effect”.
As for `CCCCC[C@H]1O[C@H]1CC1CC1CCCCCCCC(=O)OC` (stereo partly shown) [BR-109, vernolic acid methyl ester cyclopropane], the “concentrations at which PKCε is inhibited” value at PKCε (FIG. 8) is “above 1 μM”.
In the case of `CCC1CC1CC1CC1CC1CC1CC1CC1CC1CC1CCCC(=O)OC` (stereo not shown) [BR-114], at PKCε, the “concentration needed to activate PKC relative to BR-101 (DCP-LA)” value is recorded as “approximately 100 times lower” and the “activation of purified PKCε (in words)” value was “activated purified PKCε to a similar extent”.
On to `CCCCCC1CC1CC1CC1CC1CC1CC1CC1CCCC(=O)OC` (stereo not shown) [BR-115, methyl 4-(2-((2-((2-((-pentylcyclopropyl)methyl)cyclopropyl)methyl)cyclopropyl)methyl)cyclopropyl)butanoate methyl ester], for which, on PKCε, the “concentration needed to activate PKC relative to BR-101 (DCP-LA)” value is recorded as “approximately 100 times lower” and the “activation of purified PKCε (in words)” value is “activated purified PKCε to a similar extent”.
On to `C/C=C(/C)C(=O)O[C@H]1C(C)=C[C@]23C(=O)[C@@H](C=C(CO)[C@@H](O)[C@]12O)[C@H]1[C@@H](C[C@H]3C)C1(C)C` [Ingenol-3-angelate], for which, in assay [1], the antitumor activity entry is listed as “exhibits antitumor activity”.
For `Cc1ccc(OCC(=O)O)c(OCC(=O)O)c1` [MCDA, 4-Methylcatechol-diacetic acid], the “water maze spatial learning, ischemic treated vs ischemic rats” value in assay [2] (bryostatin-1 20 μg/m^2 i.v. 2 doses/week, 10 doses, MCDA 1.0 mg/kg i.p. daily 5 weeks, start 24 hours after hypoxia) was “improved the learning”. Further, in assay [2] (setting [4]), the “target quadrant ratio in probe test, drug-only vs control rats” value was “no differences” and the “water maze spatial learning, drug-only vs control rats” value is on record as “no differences”. Moreover, in assay [2] (same regimens), the “target quadrant ratio in probe test, ischemic treated vs control rats” value was “no differences”; the “target quadrant ratio in probe test, ischemic treated vs ischemic rats” value is reported as “group differences”; the “water maze spatial learning, ischemic treated vs control rats” value was “remained significant”.
Turning to `CCCCCCCCCCCCCC(=O)O[C@@H]1[C@@H](C)[C@@]2(O)[C@@H](C=C(CO)C[C@]3(O)C(=O)C(C)=C[C@@H]23)[C@@H]2C(C)(C)[C@]12OC(C)=O` [PMA, phorbol 12-myristate 13-acetate], the “PKC activity at 8 hours (downregulation)” value in assay [3] is on record as “strongly downregulated”.
With `CCCC(=O)O[C@@H]1[C@@H](C)[C@@]2(O)[C@@H](C=C(CO)C[C@]3(O)C(=O)C(C)=C[C@@H]23)[C@@H]2C(C)(C)[C@]12OC(=O)CCC` [PdBu], the “effect on Aβ” value in the assay with Aβ in COS cells is “increase in Aβ”.
As to epoxystearic acid [BR-116], the “effect on PKC” value on PKCε (FIG. 8) is listed as “little or no effect”.
